Laboratory results as given in patent publication US20260130896A1, “COMPOSITIONS AND METHODS FOR DELIVERY OF OPHTHALMOLOGICAL ACTIVES” (ADS Therapeutics LLC, priority 2023, published 2026).
One block for each compound: values may come before it.

Tests used:
Assay type in all cases: physicochemical
[1] = Solubility of Acoltremon (AR-15512) in exemplary formulations
Description: (§1) Time (min) % Mobile Phase A % Mobile Phase B

[2] = Solubility of lotilaner in exemplary formulations
Description: as §1

[3] = Solubility of ivermectin (CBT-273) in exemplary formulations
[4] = Solubility of axitinib in exemplary formulations
Description: Mobile phase A: 0.05% TFA-H2O
Mobile phase B: 0.05% TFA-Acetonitrile
Flow rate: 1.0 mL/min Wavelength: 362 nm
Injection volume: 30 μL Column temperature: 40° C.

[5] = Solubility of lifitegrast in exemplary formulations
Description: Chromatographic column: Agilent ZORBAX SB-C18, 4.6*250 mm, 5 μm Mobile phase A: 0.1% Phosphoric Acid-H2O Mobile phase B: Acetonitrile Flow rate: 1.0 mL/min Wavelength: UV/220 nm Injection volume: 10 μL Column temperature: 35° C.
Since the auxiliary peaks of MCM and MC8-2 overlapped with the main peaks in the above gradient method, the analytical methods for MCM and MC8-2 were adjusted as follows: Chromatographic column: Agilent ZORBAX SB-C18, 4.6*250 mm, 5 μm Mobile phase A: 0.1% Phosphoric Acid-H2O Mobile phase B: Acetonitrile Flow rate: 1.0 mL/min Wavelength: UV/220 nm Injection volume: 10 μL Column temperature: 35° C.

[6] = Solubility of aceclidine in exemplary formulations; conditions: for Aceclidine solubility: Unsaturated
Description: An appropriate amount of aceclidine was dissolved in various MCT (to obtain a mixed solution), then SFA (F6H8 or F4H5) was added to the solution in the indicated proportions and the solution was mixed well with magnetic stirring.

[7] = Stability of aceclidine in F6H8; conditions: dissolved in F6H8, 25° C., 1, 3, 6, 9 and 12 months
Description: Aceclidine is dissolved in F6H8 as described in Example 17. The level of aceclidine is measured by the GC method at 25° C. at 1, 3, 6, 9 and 12 months. The aceclidine in the formulation is defined as stable if the level is maintained between 90-110% of the original level.

[8] = Solubility of aceclidine in F6H8, MCT and 10% MCT in F6H8 by GC; conditions: GC method
Description: 5 mg aceclidine was added into a PP tube, 1 ml of F6H8 was added, the PP tube was shaken for about 5 minutes and aceclidine was completely dissolved in the solution. Further 18 mg aceclidine was added, and shaking was continued until no insoluble substance was found. […] The phenomenon disappeared after re-shaking.
The above formulations were centrifuged and the supernatants filtered through 0.45 micron filters without further dilution. One sample was prepared from each solvent for GC analysis.
The GC protocols and parameters are listed below:
Injection Volume: 0.5 ul (Direct injection)
Detector Temp (FID): 300° C.
Gradient: 70° C. (hold 2 min)→12° C./min→280° C. (hold 7 min)
20 mg aceclidine was added into a PP tube, and 1 ml MCT was added. The PP tube was shaken for about 5 minutes and the resulting solution became clear. Further 40 mg of aceclidine was added. The PP tube was shaken again. […] The phenomenon disappeared after re-shaking. A small sample was taken and solubility was determined according to the GC method described in Example 17.
Sample preparation was prepared and analyzed based on the protocols described in Examples 17 and 18.

Compound: COc1ccc(NC(=O)[C@@H]2C[C@H](C)CC[C@H]2C(C)C)cc1 [Acoltremon (AR-15512), (1R,2S,5R)—N-(4-methoxyphenyl)-5-methyl-2-(1-methylethyl) cyclohexanecarboxamide]
Acoltremon (AR-15512) Saturated solubility ([1]; 10% Captex 170/90% F4H5, RT): 0.21 mg/g
Acoltremon (AR-15512) Saturated solubility ([1]; 10% Captex 200P / 90% F4H5, RT): 0.36 mg/g
Acoltremon (AR-15512) Saturated solubility ([1]; 10% Captex 200P/90% F6H8, RT): 0.36 mg/g
Acoltremon (AR-15512) Saturated solubility ([1]; 10% Captex 355/90% F6H8, RT): 0.7 mg/g
Acoltremon (AR-15512) Saturated solubility ([1]; 10% MCT/90% F4H5, RT): 0.28 mg/g
Acoltremon (AR-15512) Saturated solubility ([1]; 10% MCT/90% F6H8, RT): 0.29 mg/g
Acoltremon (AR-15512) Saturated solubility ([1]; 20% Captex 170/80% F4H5, RT): 0.42 mg/g
Acoltremon (AR-15512) Saturated solubility ([1]; 20% Captex 170/80% F6H8, RT): 0.43 mg/g
Acoltremon (AR-15512) Saturated solubility ([1]; 20% Captex 200P / 80% F4H5, RT): 0.66 mg/g
Acoltremon (AR-15512) Saturated solubility ([1]; 20% Captex 200P / 80% F6H8, RT): 0.53 mg/g
Acoltremon (AR-15512) Saturated solubility ([1]; 20% MCT/80% F4H5, RT): 0.55 mg/g
Acoltremon (AR-15512) Saturated solubility ([1]; 20% MCT/80% F6H8, RT): 0.55 mg/g
Acoltremon (AR-15512) Saturated solubility ([1]; 100% Captex 170, RT): 2.03 mg/g
Acoltremon (AR-15512) Saturated solubility ([1]; 100% Captex 200P, RT): 3.21 mg/g
Acoltremon (AR-15512) Saturated solubility ([1]; 100% Captex 8000, RT): 1.84 mg/g
Acoltremon (AR-15512) Saturated solubility ([1]; 100% F4H5, RT): 0.064 mg/g
Acoltremon (AR-15512) Saturated solubility ([1]; 100% F6H8, RT): 0.055 mg/g
Acoltremon (AR-15512) Saturated solubility ([1]; 100% MCT, RT): 3.12 mg/g

Compound: ivermectin [Ivermectin (CBT-273)]
Ivermectin (CBT-273) Saturated solubility ([3]; 10% Captex 300/90% F6H8, RT): 1.35 mg/g
Ivermectin (CBT-273) Saturated solubility ([3]; 10% Captex 355/90% F4H5, RT): 0.61 mg/g
Ivermectin (CBT-273) Saturated solubility ([3]; 10% Captex 355/90% F6H8, RT): 0.46 mg/g
Ivermectin (CBT-273) Saturated solubility ([3]; 10% Captex 8000/90% F6H8, RT): 1.36 mg/g
Ivermectin (CBT-273) Saturated solubility ([3]; 20% Captex 355/80% F4H5, RT): 3.03 mg/g
Ivermectin (CBT-273) Saturated solubility ([3]; 20% Captex 355/80% F6H8, RT): 3.87 mg/g
Ivermectin (CBT-273) Saturated solubility ([3]; 100% Captex 355, RT): 26.51 mg/g
Ivermectin (CBT-273) Saturated solubility ([3]; 100% Captex 8000, RT): 34.62 mg/g
Ivermectin (CBT-273) Saturated solubility ([3]; 100% Captex ® 300, RT): 27.91 mg/g
Ivermectin (CBT-273) Saturated solubility ([3]; 100% F4H5, RT): 0.12 mg/g
Ivermectin (CBT-273) Saturated solubility ([3]; 100% F6H8, RT): 0.04 mg/g

Compound: CC(=O)OC1CN2CCC1CC2 (stereo not shown) [Aceclidine, aceclidine]
aceclidine concentration that is stable and uniform ([6]; 10% Captex 355/F6H8, RT): 1.5%-2% is stable
Aceclidine solubility ([6]; 10% Captex 355/F6H8, RT): > 21.4(Unsaturated), mg/g
aceclidine concentration that is stable and uniform ([6]; 10% Captex 8000/F6H8, RT): 2% is stable and
Aceclidine solubility ([6]; 10% Captex 8000/F6H8, RT): > 17.0(Unsaturated), mg/g
Aceclidine solubility ([6]; 10% MCT/90% F6H8, RT): > 17.0(Unsaturated) mg/g
Aceclidine solubility ([6]; 100% Captex 300, RT): > 66.7(Unsaturated) mg/g
Aceclidine solubility ([6]; 100% Captex 355, RT): > 203.4(Unsaturated) mg/g
Aceclidine solubility ([6]; 100% Captex 8000, RT): > 164.0(Unsaturated) mg/g
Aceclidine solubility ([6]; 100% MCT, RT): > 320.9(Unsaturated) mg/g
stability (level maintained between 90-110% of the original level) [7]: remains stable
solubility of aceclidine in 10% MCT in F6H8 [8]: around 2 % (w/v)
solubility of aceclidine in F6H8 [8]: around 1.5 % (w/v)
solubility of aceclidine in MCT [8]: around 5 % (w/v)

More lines, now with the values ahead:

Lotilaner solubility ([2]; 10% Captex 300/90% F6H8, RT): 1.21 mg/g
Lotilaner solubility ([2]; 10% Captex 8000/90% F6H8, RT): 3.47 mg/g
Lotilaner solubility ([2]; 10% MCT/90% F6H8, RT): 2.7 mg/g
Lotilaner solubility ([2]; 20% MCT/80% F6H8, RT): 5.42 mg/g
Lotilaner solubility ([2]; 100% Captex 300 (Unsaturated), RT): > 11.32 mg/g
Lotilaner solubility ([2]; 100% Captex 8000 (Unsaturated), RT): > 29.04 mg/g
Lotilaner solubility ([2]; 100% MCT (Unsaturated), RT): > 25.47 mg/g
Compound: Cc1cc(C2=NO[C@@](c3cc(Cl)c(Cl)c(Cl)c3)(C(F)(F)F)C2)sc1C(=O)NCC(=O)NCC(F)(F)F [Lotilaner, lotilaner]

Axitinib Saturated solubility ([4]; 100% Captex 300, RT): 0.022 mg/g
Axitinib Saturated solubility ([4]; 100% Captex 355, RT): 0.03 mg/g
Axitinib Saturated solubility ([4]; 100% Captex 8000, RT): 0.1 mg/g
Compound: CNC(=O)c1ccccc1Sc1ccc2c(/C=C/c3ccccn3)n[nH]c2c1 [Axitinib]

Lifitegrast Saturated solubility ([5]; 10% MCT/90% F6H8, RT): 0 mg/g
Lifitegrast Saturated solubility ([5]; 20% MCT/80% F6H8, RT): 0 mg/g
Lifitegrast Saturated solubility ([5]; 50% MCT/50% F6H8, RT): 0.004 mg/g
Lifitegrast Saturated solubility ([5]; 100% Captex 300, RT): 0.28 mg/g
Lifitegrast Saturated solubility ([5]; 100% Captex 355, RT): 0.27 mg/g
Lifitegrast Saturated solubility ([5]; 100% Captex 8000, RT): 0.56 mg/g
Compound: CS(=O)(=O)c1cccc(C[C@H](NC(=O)c2c(Cl)cc3c(c2Cl)CCN(C(=O)c2ccc4ccoc4c2)C3)C(=O)O)c1 [Lifitegrast, lifitegrast]
